From patent US20240293493A1, “COMPOSITION FOR ALLEVIATING, TREATING, OR PREVENTING MUSCULAR DISEASES, OR IMPROVING MUSCULAR FUNCTIONS, CONTAINING KOREAN MINT EXTRACT OR TILIANIN AS ACTIVE INGREDIENT” (AAT COSTECH CO., LTD., priority 2020, published 2024)

Experiments:
[1] = system: mTOR; assay: mTOR activity in L6 myotubes by mTOR sandwich ELISA kit; type: cell-based; conditions: 20 μM or 40 μM tilianin, vs control group
Method: It is known that the activation of the mTOR protein by phosphorylation can induce muscle protein synthesis in muscle cells by the PI3K/Akt signaling pathway and can activate proteins involved in increase of muscle mass. Therefore, in order to investigate the activity of inducing muscle formation of Korean mint, the activity of mTOR was investigated using a mTOR sandwich ELISA kit (Cell Signaling Technology, Beverly, MA, USA).
L6 myoblasts (ATCC; Manassas, VA, USA) were seeded on a 6-well plate at 1×10^5 cells/well with Dulbecco's modified Eagle's medium (DMEM; Hyclone) containing 10% fetal bovine serum (FBS; Hyclone, Logan, UT, USA) and then cultured for 24 hours. […]
(Hyclone) containing 2% horse serum (HS; Hyclone). […] Proteins in the obtained cell lysate were quantified at a concentration of 1 mg/mL by Bradford assay (Bio-Rad Laboratories Inc., Hercules, CA, USA). […] 2 minutes later, the mTOR level in the myotubes treated with the extract of Korean mint leaf was measured by measuring absorbance at 450 nm. […] The difference between groups was analyzed through Duncan's multiple range test by one-way analysis of variance using the SPSS25.0 statistical package (SPSS Inc., Chicago, IL, USA). […]
mTOR activity was measured in the same manner as in Example 3 except that the extracts of the aerial part of Korean mint of Example 1-2 to Example 1-8 were treated at 80 μg/mL. […]

[2] = system: atrogin-1; assay: atrogin-1 mRNA expression in TNF-α-treated L6 myotubes (RT-PCR); type: cell-based; conditions: TNF-α treatment, 20 µM or 40 µM tilianin
Method: (§1) L6 myoblasts (ATCC), which are muscle cells, were added to a 6-well plate with DMEM (Hyclone) containing 10% FBS (Hyclone) at 1×10^5 cells/mL. When the cell density reached about 80-85%, the medium remaining in the well was removed and differentiation into myotubes was induced by treating the cells with DMEM (Hyclone) containing 2% HS (Hyclone). The differentiation was performed for a total of 6 days while replacing the medium with a fresh one every 2 days. After the differentiation, […], which was dissolved in DMEM (Hyclone) containing 50 ng/ml tumor necrosis factor alpha (TNF-α; PeproTech, Rocky Hills, NJ, USA). 12 hours later, total RNA was isolated using a TRIzol reagent (Takara, Otsu, Japan). The isolated total RNA was quantified using NanoDrop 1000 (Thermo Fisher Scientific Inc., Waltham, MA, USA). cDNA was synthesized from 16 μL of the quantified RNAs using a reverse transcriptase premix (ELPIS-Biotech) and a PCR machine (Gene Amp PCR System 2700; Applied Biosystems, Foster City, CA, USA) under the condition of 42° C. for 55 minutes and 70° C. for 15 minutes. PCR was performed by repeating 30 cycles of 95° C. for 30 seconds, 60° C. for 1 minute and 72° C. for 1 minute using 1 μL of cDNA from 16 μL of the produced cDNA, specific primers described below (Bioneer, Daejeon, Korea) and a PCR premix (ELPIS-Biotech). […]

[3] = system: MuRF1; assay: MuRF1 mRNA expression in TNF-α-treated L6 myotubes (RT-PCR); type: cell-based; conditions: TNF-α treatment, 20 µM or 40 µM tilianin
Method: as §1

[4] = system: muscle atrophy-induced mice; assay: Muscular strength in mice with skin-stapler immobilization muscle atrophy; type: in vivo, mice (C57BL/6J); conditions: tilianin 20 mg/kg orally every day, compared with muscle atrophy group
Method: (§2) 7-week-old male mice (C57BL/6J; DBL, Korea) were purchased as experimental animals. The breeding environment was maintained at a temperature of 23±2° C. and a relative humidity of 55±10%. Before the start of the experiment, a total of 20 mice were randomly divided into groups of 5 mice each. After a week of acclimation, anesthesia was induced by intraperitoneal injection of 325 mg/kg tribromoethanol (Sigma-Aldrich). After the anesthesia, the right hindlimb gastrocnemius muscle and the right sole of the mice in a muscle atrophy group and a sample administration group were stapled using a skin stapler (Unidus, Chungcheongbuk-do, Korea) to damage the muscle and keep the right hindlimb from moving. This state was maintained for a week. […]
After the end of the oral administration period, the muscular strength of the mice was measured using a muscular strength meter (Panlab, Barcelona, Spain). […]
(§3) After inducing muscle atrophy in the same manner as in Example 12-1, tilianin was orally administered every day at a concentration of 20 mg/kg. Then, muscular strength and muscle weight were measured in the same manner as in Example 12-2 and Example 12-3.

[5] = system: muscle atrophy-induced mice; assay: Tibialis anterior muscle weight in muscle atrophy-induced mice; type: in vivo, mice (C57BL/6J); conditions: tilianin 20 mg/kg orally every day, compared with muscle atrophy group
Method: as §2, §3

In the case of `COc1ccc(-c2cc(=O)c3c(O)cc(O[C@@H]4O[C@H](CO)[C@@H](O)[C@H](O)[C@H]4O)cc3o2)cc1` [tilianin], the “mTOR activity (FIG. 3)” value [1] is reported as “significantly increased”, the “mRNA of atrogin-1 (FIG. 4)” value [2] is reported as “decreased” and the “mRNA of MuRF1 (FIG. 4)” value [3] is reported as “decreased”. For the same compound, the “increase of muscular strength” value [4] was 30.3% and the “increase of muscle weight” value [5] was 15.2%.
